We go through two molecules from PMC6996489 (Drug Design, Development and Therapy, 2020).

Assay [1] has as its target T1, human recombinant monoamine oxidase B (MAO B) (Homo sapiens, UniProt P27338).
T1 sequence (P27338 1-520): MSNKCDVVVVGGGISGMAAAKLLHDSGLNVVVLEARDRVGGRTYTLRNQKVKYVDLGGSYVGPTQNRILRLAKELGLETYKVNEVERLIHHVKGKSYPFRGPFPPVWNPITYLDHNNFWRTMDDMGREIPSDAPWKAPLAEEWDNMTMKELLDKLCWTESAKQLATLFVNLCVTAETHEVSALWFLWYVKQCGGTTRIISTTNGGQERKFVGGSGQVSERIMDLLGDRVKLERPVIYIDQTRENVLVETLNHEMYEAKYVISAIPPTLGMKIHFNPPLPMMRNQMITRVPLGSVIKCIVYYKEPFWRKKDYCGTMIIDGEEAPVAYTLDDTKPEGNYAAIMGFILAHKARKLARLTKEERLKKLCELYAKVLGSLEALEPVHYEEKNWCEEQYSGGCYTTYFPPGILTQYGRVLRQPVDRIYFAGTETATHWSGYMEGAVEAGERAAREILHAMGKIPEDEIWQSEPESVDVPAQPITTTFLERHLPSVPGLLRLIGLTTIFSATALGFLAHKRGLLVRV
In kind it is biochemical. Conditions: MAO B vs MAO A.

Another assay concerns the target T2, MAO B (Homo sapiens, UniProt P27338).
T2 sequence (P27338 1-520): T1 sequence (P27338 1-520)
Conditions: seven kynuramine concentrations, Lineweaver–Burk plots.

A further assay concerns the target BuChE (Homo sapiens, UniProt P06276). In words: Butyrylcholine esterase inhibition screening. Conditions: concentration of 1 µm. In kind it is biochemical.
The target of a further assay is AChE (Homo sapiens, UniProt P22303). Description: Acetylcholine esterase inhibition screening. It counts as biochemical. Conditions: concentration of 1 µm.
Chain of AChE (P22303 32-614): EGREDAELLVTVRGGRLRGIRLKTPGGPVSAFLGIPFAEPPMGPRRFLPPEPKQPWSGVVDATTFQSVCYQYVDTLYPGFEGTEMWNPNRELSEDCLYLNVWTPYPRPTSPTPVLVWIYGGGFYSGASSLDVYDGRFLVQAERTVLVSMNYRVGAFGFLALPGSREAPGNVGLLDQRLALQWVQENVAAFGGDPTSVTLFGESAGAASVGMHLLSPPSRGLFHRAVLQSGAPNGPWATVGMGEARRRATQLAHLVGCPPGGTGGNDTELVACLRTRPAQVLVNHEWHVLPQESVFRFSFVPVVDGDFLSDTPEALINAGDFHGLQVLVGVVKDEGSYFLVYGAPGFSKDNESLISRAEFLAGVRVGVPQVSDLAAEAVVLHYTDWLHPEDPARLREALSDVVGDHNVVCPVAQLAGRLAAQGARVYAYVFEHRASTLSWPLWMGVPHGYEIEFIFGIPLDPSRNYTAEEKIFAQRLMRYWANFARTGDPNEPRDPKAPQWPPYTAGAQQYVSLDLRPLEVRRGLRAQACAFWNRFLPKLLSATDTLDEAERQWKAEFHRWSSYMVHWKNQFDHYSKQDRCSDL

Chain of BuChE (P06276 29-602): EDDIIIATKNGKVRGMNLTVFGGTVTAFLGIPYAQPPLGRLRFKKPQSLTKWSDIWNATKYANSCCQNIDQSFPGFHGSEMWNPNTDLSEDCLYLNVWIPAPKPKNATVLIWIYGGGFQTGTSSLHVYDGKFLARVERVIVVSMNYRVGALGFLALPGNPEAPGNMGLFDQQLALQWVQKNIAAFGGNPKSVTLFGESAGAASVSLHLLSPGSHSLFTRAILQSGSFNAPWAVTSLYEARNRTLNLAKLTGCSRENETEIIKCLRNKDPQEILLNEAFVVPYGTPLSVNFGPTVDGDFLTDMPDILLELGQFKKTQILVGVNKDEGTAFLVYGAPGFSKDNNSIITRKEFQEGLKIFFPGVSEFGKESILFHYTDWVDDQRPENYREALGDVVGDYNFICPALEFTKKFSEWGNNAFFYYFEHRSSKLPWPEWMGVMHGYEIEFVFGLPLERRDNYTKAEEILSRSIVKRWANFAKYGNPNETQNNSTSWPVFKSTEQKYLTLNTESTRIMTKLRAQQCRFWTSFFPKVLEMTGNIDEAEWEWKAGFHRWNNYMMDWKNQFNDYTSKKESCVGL

For `O=C(Nc1ccc([N+](=O)[O-])cc1[N+](=O)[O-])c1ccccc1` [Compound 7, N-(2,4-Dinitrophenyl)benzamide], the “fold lower affinity towards MAO B than MAO A” value in assay [1] is reported as 8.3 fold.
As for `O=C(Nc1ccc([N+](=O)[O-])cc1[N+](=O)[O-])c1ccc2c(c1)OCO2` [Compound 55, N-(2,4-Dinitrophenyl)benzo[d][1,3]dioxole-5-carboxamide], the “Type of MAO B inhibition” value on MAO B is given as “competitive”. Also, at BuChE, the “inhibition of BuChE at 1 µm” value worked out at 57±4.5%. Also, the “inhibition of AChE at 1 µm” value against AChE is given as 24±1.8%.
